According to the kinase profiling compilation of Christmann-Franck et al. (2016):
“And” between values parts separate entries of the source, which are not always exact repeats. Equal entries are not always repeated.

What was measured:
Assay in all cases: radiometric filter-binding kinase assay, Kinase HotSpot
Details in all cases: compound 0.5 µM; ATP 10 µM
PRKCH (human) = PRKCH (human) (UniProt P24723)
PRKD1 (human) = PRKD1 (human) (UniProt Q15139)
MAP3K8 (human) = MAP3K8 (human) (UniProt P41279)
PRKG1 (human) = PRKG1 (human) (UniProt Q13976)
MARK4 (human) = MARK4 (human) (UniProt Q96L34)
CAMKK1 (human) = CAMKK1 (human) (UniProt Q8N5S9)
Chain of CAMKK1 (human) (Q8N5S9 whole entry, looked up): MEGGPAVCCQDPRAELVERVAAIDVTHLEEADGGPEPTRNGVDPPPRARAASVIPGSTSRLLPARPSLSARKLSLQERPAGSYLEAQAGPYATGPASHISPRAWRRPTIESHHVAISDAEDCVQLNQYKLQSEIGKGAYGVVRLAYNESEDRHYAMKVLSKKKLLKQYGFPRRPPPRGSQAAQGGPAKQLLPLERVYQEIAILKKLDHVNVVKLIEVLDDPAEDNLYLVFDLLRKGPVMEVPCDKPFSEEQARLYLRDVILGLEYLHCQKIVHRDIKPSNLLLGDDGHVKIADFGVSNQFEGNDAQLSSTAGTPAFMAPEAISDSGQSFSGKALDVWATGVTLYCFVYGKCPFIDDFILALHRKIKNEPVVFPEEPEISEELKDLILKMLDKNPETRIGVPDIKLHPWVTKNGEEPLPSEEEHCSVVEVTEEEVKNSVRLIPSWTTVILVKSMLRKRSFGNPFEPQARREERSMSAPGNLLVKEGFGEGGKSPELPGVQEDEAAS

FGFR2 (human) = FGFR2 (human) (UniProt P21802)
WEE1 (human) = WEE1 (human) (UniProt P30291)
LYN (human) = LYN (human) (UniProt P07948)
MAPK11 (human) = MAPK11 (human) (UniProt Q15759)
Chain of MAPK11 (human) (Q15759 whole entry, looked up): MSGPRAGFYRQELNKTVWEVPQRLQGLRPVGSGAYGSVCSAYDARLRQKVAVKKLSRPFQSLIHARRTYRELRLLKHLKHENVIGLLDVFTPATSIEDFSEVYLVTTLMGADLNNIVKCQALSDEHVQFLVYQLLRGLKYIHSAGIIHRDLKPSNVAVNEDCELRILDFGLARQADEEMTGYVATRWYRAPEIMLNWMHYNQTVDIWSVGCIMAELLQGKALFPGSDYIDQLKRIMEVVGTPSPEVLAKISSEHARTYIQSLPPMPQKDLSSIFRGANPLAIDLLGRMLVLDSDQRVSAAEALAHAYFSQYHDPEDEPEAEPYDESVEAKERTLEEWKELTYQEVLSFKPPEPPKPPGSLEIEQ

SGK2 (human) = SGK2 (human) (UniProt Q9HBY8)
RPS6KA1 KD1 KD2 (human) = RPS6KA1 KD1 KD2 (human) (UniProt Q15418)
AKT3 (human) = AKT3 (human) (UniProt Q9Y243)
ROCK2 (human) = ROCK2 (human) (UniProt O75116)
Chain of ROCK2 (human) (O75116 whole entry, looked up): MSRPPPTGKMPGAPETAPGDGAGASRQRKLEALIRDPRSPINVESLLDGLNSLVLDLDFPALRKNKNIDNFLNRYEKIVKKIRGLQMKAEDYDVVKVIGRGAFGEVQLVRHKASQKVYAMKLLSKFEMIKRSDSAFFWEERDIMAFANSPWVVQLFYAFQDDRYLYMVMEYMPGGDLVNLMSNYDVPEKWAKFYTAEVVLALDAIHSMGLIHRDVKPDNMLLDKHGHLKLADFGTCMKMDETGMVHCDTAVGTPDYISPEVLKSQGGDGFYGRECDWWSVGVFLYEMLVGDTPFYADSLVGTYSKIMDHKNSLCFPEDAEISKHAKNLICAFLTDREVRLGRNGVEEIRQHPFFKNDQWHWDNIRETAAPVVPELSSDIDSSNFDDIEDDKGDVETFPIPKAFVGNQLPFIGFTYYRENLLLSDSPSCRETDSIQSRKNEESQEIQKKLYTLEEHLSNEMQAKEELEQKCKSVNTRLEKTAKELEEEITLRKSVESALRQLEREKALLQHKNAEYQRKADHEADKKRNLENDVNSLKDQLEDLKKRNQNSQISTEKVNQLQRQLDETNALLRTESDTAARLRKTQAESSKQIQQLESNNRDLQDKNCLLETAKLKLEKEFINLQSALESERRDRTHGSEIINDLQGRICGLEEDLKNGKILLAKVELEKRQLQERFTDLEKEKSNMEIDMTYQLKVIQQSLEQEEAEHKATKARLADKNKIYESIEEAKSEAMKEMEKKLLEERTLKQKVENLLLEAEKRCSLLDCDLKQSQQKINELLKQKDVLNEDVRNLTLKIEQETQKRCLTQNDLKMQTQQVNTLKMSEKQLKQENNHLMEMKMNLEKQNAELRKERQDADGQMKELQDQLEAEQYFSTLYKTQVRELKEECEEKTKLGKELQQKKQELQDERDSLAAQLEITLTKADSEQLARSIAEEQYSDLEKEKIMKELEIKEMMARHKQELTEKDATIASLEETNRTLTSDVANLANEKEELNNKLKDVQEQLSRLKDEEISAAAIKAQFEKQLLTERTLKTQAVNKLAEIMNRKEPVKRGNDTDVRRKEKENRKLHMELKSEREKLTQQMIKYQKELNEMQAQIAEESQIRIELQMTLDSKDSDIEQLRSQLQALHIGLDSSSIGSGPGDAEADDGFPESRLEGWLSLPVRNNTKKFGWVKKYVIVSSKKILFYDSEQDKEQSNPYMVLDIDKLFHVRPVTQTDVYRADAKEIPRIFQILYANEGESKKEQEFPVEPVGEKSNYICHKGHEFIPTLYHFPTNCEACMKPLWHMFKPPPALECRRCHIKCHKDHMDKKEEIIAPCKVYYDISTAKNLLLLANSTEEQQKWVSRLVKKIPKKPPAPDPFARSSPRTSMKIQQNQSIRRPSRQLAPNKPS

MST4 (human) = MST4 (human) (UniProt Q9P289)
Chain of MST4 (human) (Q9P289 whole entry, looked up): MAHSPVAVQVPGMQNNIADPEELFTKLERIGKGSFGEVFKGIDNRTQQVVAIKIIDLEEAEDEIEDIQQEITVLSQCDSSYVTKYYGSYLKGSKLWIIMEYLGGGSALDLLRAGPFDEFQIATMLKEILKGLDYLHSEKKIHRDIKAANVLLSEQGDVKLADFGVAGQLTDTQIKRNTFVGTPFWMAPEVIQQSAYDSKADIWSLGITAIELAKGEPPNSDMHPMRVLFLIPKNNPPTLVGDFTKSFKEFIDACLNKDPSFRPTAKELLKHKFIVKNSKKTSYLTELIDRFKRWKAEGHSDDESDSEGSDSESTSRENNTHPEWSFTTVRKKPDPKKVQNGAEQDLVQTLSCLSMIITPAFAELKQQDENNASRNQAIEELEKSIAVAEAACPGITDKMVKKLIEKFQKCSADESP

ERBB2 (human) = ERBB2 (human) (UniProt P04626)
CSNK1D (human) = CSNK1D (human) (UniProt P48730)
PRKCZ (human) = PRKCZ (human) (UniProt Q05513)
PLK1 (human) = PLK1 (human) (UniProt P53350)
Chain of PLK1 (human) (P53350 whole entry, looked up): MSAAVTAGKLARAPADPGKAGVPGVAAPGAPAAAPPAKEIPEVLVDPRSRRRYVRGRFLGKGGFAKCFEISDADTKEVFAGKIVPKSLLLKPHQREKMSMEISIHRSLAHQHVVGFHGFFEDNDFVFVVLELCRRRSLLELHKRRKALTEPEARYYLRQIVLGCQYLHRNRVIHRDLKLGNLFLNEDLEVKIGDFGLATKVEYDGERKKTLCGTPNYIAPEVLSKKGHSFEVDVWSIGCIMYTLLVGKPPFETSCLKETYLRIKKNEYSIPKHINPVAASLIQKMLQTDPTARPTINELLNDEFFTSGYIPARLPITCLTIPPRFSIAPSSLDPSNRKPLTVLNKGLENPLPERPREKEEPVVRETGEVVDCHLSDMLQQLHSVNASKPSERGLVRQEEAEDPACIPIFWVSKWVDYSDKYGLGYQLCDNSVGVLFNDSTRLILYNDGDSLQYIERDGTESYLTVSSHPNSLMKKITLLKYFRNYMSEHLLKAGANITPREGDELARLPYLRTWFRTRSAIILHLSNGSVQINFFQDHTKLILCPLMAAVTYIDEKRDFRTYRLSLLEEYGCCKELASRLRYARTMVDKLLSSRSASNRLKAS

SGK3 (human) = SGK3 (human) (UniProt Q96BR1)
STK16 (human) = STK16 (human) (UniProt O75716)
TEC (human) = TEC (human) (UniProt P42680)
WNK3 (human) = WNK3 (human) (UniProt Q9BYP7)
DYRK1A (human) = DYRK1A (human) (UniProt Q13627)
MAPK3 (human) = MAPK3 (human) (UniProt P27361)
CLK4 (human) = CLK4 (human) (UniProt Q9HAZ1)
ITK (human) = ITK (human) (UniProt Q08881)
CDK5 CDK5R1 p35 (human) = CDK5 CDK5R1 p35 (human) (UniProt Q00535+Q15078)
MARK3 (human) = MARK3 (human) (UniProt P27448)
STK4 (human) = STK4 (human) (UniProt Q13043)
SIK2 (human) = SIK2 (human) (UniProt Q9H0K1)
BMX (human) = BMX (human) (UniProt P51813)
OXSR1 (human) = OXSR1 (human) (UniProt O95747)
FGFR3 (human) = FGFR3 (human) (UniProt P22607)
FGFR1 (human) = FGFR1 (human) (UniProt P11362)
CSF1R (human) = CSF1R (human) (UniProt P07333)
Chain of CSF1R (human) (P07333 whole entry, looked up): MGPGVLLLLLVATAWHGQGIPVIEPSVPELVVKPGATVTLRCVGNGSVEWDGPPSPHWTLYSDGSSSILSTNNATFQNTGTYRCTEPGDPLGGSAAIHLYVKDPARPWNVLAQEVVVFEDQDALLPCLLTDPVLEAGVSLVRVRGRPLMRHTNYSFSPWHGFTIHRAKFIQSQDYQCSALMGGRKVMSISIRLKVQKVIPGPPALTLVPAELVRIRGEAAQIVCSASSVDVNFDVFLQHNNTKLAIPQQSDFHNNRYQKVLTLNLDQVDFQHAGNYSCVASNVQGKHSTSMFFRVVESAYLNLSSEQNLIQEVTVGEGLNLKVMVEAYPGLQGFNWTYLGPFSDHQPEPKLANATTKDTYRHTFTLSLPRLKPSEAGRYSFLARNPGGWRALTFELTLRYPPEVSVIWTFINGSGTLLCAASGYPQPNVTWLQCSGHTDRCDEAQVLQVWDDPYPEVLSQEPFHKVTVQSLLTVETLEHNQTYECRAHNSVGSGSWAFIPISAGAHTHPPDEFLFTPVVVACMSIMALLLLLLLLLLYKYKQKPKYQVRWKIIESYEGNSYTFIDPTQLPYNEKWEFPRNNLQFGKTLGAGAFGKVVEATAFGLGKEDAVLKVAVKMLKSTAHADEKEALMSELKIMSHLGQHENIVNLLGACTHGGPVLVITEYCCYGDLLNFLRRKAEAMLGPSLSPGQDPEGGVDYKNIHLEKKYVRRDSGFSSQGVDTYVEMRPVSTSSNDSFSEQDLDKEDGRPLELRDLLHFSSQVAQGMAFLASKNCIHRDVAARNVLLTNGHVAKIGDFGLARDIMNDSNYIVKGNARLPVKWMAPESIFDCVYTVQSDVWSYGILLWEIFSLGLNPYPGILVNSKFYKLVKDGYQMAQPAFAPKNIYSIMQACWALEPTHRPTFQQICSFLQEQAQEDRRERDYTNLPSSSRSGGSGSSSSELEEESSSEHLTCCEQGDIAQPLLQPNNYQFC

LCK (human) = LCK (human) (UniProt P06239)
EPHB4 (human) = EPHB4 (human) (UniProt P54760)
ACVR1B (human) = ACVR1B (human) (UniProt P36896)
PHKG1 (human) = PHKG1 (human) (UniProt Q16816)
RPS6KA6 KD1 KD2 (human) = RPS6KA6 KD1 KD2 (human) (UniProt Q9UK32)
PTK2B (human) = PTK2B (human) (UniProt Q14289)

Chain of PRKCH (human) (P24723 whole entry, looked up): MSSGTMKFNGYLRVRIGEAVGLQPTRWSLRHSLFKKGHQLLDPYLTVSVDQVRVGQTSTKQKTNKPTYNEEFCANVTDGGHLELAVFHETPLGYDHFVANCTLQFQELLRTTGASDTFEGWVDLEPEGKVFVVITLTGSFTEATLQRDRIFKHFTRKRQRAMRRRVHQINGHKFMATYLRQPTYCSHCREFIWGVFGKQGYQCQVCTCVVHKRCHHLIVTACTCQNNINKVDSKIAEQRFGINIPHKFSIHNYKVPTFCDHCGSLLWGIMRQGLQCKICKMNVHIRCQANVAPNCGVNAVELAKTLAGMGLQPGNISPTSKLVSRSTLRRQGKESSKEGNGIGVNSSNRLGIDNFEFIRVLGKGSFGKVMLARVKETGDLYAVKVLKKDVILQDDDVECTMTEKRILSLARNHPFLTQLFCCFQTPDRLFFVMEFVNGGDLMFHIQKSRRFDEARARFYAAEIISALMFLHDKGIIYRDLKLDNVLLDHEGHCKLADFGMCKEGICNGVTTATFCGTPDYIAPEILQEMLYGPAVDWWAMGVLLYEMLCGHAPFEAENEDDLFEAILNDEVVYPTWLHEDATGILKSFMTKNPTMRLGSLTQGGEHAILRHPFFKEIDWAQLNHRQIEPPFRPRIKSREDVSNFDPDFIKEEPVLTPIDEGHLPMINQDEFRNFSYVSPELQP

CC(C)N(CCC(=O)c1ccc2ccccc2c1)Cc1ccccc1
residual activity (PRKCH (human)): 97.3% | residual activity (PRKD1 (human)): 98% | residual activity (MAP3K8 (human)): 94.6% | residual activity (PRKG1 (human)): 101% and 102% | residual activity (MARK4 (human)): 89.3% | residual activity (CAMKK1 (human)): 104% | residual activity (FGFR2 (human)): 107% | residual activity (WEE1 (human)): 92.1% | residual activity (LYN (human)): 89.3% and 98.8% | residual activity (MAPK11 (human)): 108% | residual activity (SGK2 (human)): 101% | residual activity (RPS6KA1 KD1 KD2 (human)): 97.6% | residual activity (AKT3 (human)): 95.8% | residual activity (ROCK2 (human)): 92.8% | residual activity (MST4 (human)): 108% | residual activity (ERBB2 (human)): 98.7% | residual activity (CSNK1D (human)): 97.6% | residual activity (PRKCZ (human)): 100% | residual activity (PLK1 (human)): 97.8% | residual activity (SGK3 (human)): 106% | residual activity (STK16 (human)): 91.6% | residual activity (TEC (human)): 115% | residual activity (WNK3 (human)): 97% | residual activity (DYRK1A (human)): 105% | residual activity (MAPK3 (human)): 98.5% | residual activity (CLK4 (human)): 91.7% | residual activity (ITK (human)): 89.9% | residual activity (CDK5 CDK5R1 p35 (human)): 103% | residual activity (MARK3 (human)): 101% | residual activity (STK4 (human)): 92.5% | residual activity (SIK2 (human)): 103% | residual activity (BMX (human)): 102% | residual activity (OXSR1 (human)): 106% | residual activity (FGFR3 (human)): 99.8% | residual activity (FGFR1 (human)): 99.5% | residual activity (CSF1R (human)): 98.6% | residual activity (LCK (human)): 98.9% | residual activity (EPHB4 (human)): 102% | residual activity (ACVR1B (human)): 99.5% | residual activity (PHKG1 (human)): 91.6% | residual activity (RPS6KA6 KD1 KD2 (human)): 97.4% | residual activity (PTK2B (human)): 106%

Cc1ccc(NC2=CC(=O)c3sc(C)nc3C2=O)cc1
residual activity (PRKCH (human)): 89.4% | residual activity (PRKD1 (human)): 102% | residual activity (MAP3K8 (human)): 90.2% | residual activity (PRKG1 (human)): 104% and 96.3% | residual activity (MARK4 (human)): 102% | residual activity (CAMKK1 (human)): 108% | residual activity (FGFR2 (human)): 91% | residual activity (WEE1 (human)): 107% | residual activity (LYN (human)): 106% and 95.4% | residual activity (MAPK11 (human)): 102% | residual activity (SGK2 (human)): 94.6% | residual activity (RPS6KA1 KD1 KD2 (human)): 102% | residual activity (AKT3 (human)): 92.8% | residual activity (ROCK2 (human)): 85.1% | residual activity (MST4 (human)): 86.6% | residual activity (ERBB2 (human)): 94.2% | residual activity (CSNK1D (human)): 101% | residual activity (PRKCZ (human)): 98.2% | residual activity (PLK1 (human)): 86.8% | residual activity (SGK3 (human)): 95.2% | residual activity (STK16 (human)): 91.7% | residual activity (TEC (human)): 117% | residual activity (WNK3 (human)): 102% | residual activity (DYRK1A (human)): 103% | residual activity (MAPK3 (human)): 100% | residual activity (CLK4 (human)): 99.1% | residual activity (ITK (human)): 98.6% | residual activity (CDK5 CDK5R1 p35 (human)): 86.3% | residual activity (MARK3 (human)): 95.1% | residual activity (STK4 (human)): 93.5% | residual activity (SIK2 (human)): 118% | residual activity (BMX (human)): 100% | residual activity (OXSR1 (human)): 86.6% | residual activity (FGFR3 (human)): 86% | residual activity (FGFR1 (human)): 85.3% | residual activity (CSF1R (human)): 89.9% | residual activity (LCK (human)): 94.2% | residual activity (EPHB4 (human)): 89.7% | residual activity (ACVR1B (human)): 110% | residual activity (PHKG1 (human)): 88.7% | residual activity (RPS6KA6 KD1 KD2 (human)): 73.4% | residual activity (PTK2B (human)): 90.2%

CC[n+]1c(/C=C/N(C)c2ccccc2)n(-c2ccccc2)c2ccc(-c3nc4ccccc4s3)cc21
residual activity (PRKCH (human)): 101% | residual activity (PRKD1 (human)): 91.9% | residual activity (MAP3K8 (human)): 92% | residual activity (PRKG1 (human)): 104% and 105% | residual activity (MARK4 (human)): 110% | residual activity (CAMKK1 (human)): 115% | residual activity (FGFR2 (human)): 100% | residual activity (WEE1 (human)): 92.4% | residual activity (LYN (human)): 100% and 110% | residual activity (MAPK11 (human)): 101% | residual activity (SGK2 (human)): 123% | residual activity (RPS6KA1 KD1 KD2 (human)): 104% | residual activity (AKT3 (human)): 109% | residual activity (ROCK2 (human)): 99.1% | residual activity (MST4 (human)): 93.7% | residual activity (ERBB2 (human)): 92% | residual activity (CSNK1D (human)): 104% | residual activity (PRKCZ (human)): 99.8% | residual activity (PLK1 (human)): 110% | residual activity (SGK3 (human)): 102% | residual activity (STK16 (human)): 98.4% | residual activity (TEC (human)): 161% | residual activity (WNK3 (human)): 85.9% | residual activity (DYRK1A (human)): 96.7% | residual activity (MAPK3 (human)): 112% | residual activity (CLK4 (human)): 95.5% | residual activity (ITK (human)): 92.7% | residual activity (CDK5 CDK5R1 p35 (human)): 97.6% | residual activity (MARK3 (human)): 98.8% | residual activity (STK4 (human)): 98.3% | residual activity (SIK2 (human)): 112% | residual activity (BMX (human)): 108% | residual activity (OXSR1 (human)): 94.2% | residual activity (FGFR3 (human)): 88.4% | residual activity (FGFR1 (human)): 97.4% | residual activity (CSF1R (human)): 108% | residual activity (LCK (human)): 89.9% | residual activity (EPHB4 (human)): 103% | residual activity (ACVR1B (human)): 110% | residual activity (PHKG1 (human)): 96.1% | residual activity (RPS6KA6 KD1 KD2 (human)): 96% | residual activity (PTK2B (human)): 103%
